Experimental data published in patent US12285397B2, “Use of (s)-3-amino-4-(difluoromethylenyl) cyclopent-1-ene-1-carboxylic acid and related compounds, (1S,3S)-3-amino-4-(difluoromethylidene) cyclopentane-1-carboxylic acid and vigabatrin in the treatment of developmental disorders” (Ovid Therapeutics Inc., priority 2018, dated 2025).

Legend:
Assay type in all cases: in vivo, mouse
Fmr1 KO2 mice [1] = test: Open field hyperactivity (locomotor activity), Fmr1 KO2 mice
Description: (§1) Mutant fmr1 knockout (KO) mice recapitulate the Fragile X syndrome (FXS) phenotype and represent a preclinical model for assessment of putative drug treatments. In this study three different mice models of FXS were used: Fmr1 KO1 is the original Fmr1 knockout animal that carries an insertion in exon 5. See, e.g., Bakker C E, et al., The Dutch-Belgian Fragile X Consortium, Fmr1 knockout mice: A model to study fragile X mental retardation. Cell. 1994; 78:23-33 It is a protein null, although Fmr1 mRNA is still present. It is backcrossed to the C57/B16 strain. Subsequently, these mice were bred into different background strains, such as the FVB inbred mouse strain. Fmr1 KO2 is a null allele at Fmr1 generated by deletion of the promoter and first exon of Fmr1. See, Mientjes, E J et al., The generation of a conditional Fmr1 knock out mouse model to study Fmrp function in vivo. Neurobiology of Disease (2006) 21(3): 549-555. It is both protein and mRNA null. Backcrossed to the C57/B16 strain. Genotyping was accomplished using TransnetXY Automated Genotyping (http://www.transnetyx.com/). TRANSNETYX, INC., 8110 Cordova Rd. Suite 119, Cordova, TN 38016, USA.
(§2) The mice were housed in plastic cages (35×30×12 cm), 5 in each and habituated to the animal facilities for at least a week before test. The room temperature (21±2° C.), relative humidity (55±5%), a 12-h light-dark cycle (lights on 7 a.m.-7 p.m.) and air exchange (16 times per h) were automatically controlled. The animals had free access to commercial food pellets and water. Testing was conducted during the light phase. Testing was conducted on Fmr1 knockout mice and their wild-type (WT) littermates. Ten mice per treatment group, 14 weeks of age, were used for behavioral experiments. Experiments were conducted in line with the requirements of the UK Animals (Scientific Procedures) Act, 1986.
(§3) Oral dosing was performed by using 1.5-in. curved, 20-gauge, stainless steel feeding needles with a 2.25-mm ball (Braintree Scientific, Braintree, MA). Each gavage treatment was given in 0.5% methyl cellulose (Methyl Cellulose M0512, Sigma-Aldrich, St Louis, MO) used as vehicle with or without treatment compounds. The same veterinarian, blinded to the treatment groups, performed the procedure, and documented animal reactions to oral gavage. Reactions considered to indicate stress were defined as excessive struggling during gavage or abnormal behavior after gavage (labored breathing, frozen stance, exaggerated jumping, shuddering, and hunched posture).
(§4) For experiments all mice were tested once in the same apparatus. Prior to testing, mice not in the study were placed in the apparatus for some minutes before the experiment. The apparatus was then cleaned with moist and dry tissues before testing each mouse. The aim was to create a low but constant background mouse odor for all experimental subjects. All experiments were conducted with the experimenters blind to genotype and drug treatment during all testing and data analysis. Separate investigators prepared and coded dosing solutions, allocated the mice to the study treatment groups, dosed the animals, and collected the behavioral data. Data were analyzed by one-way analysis of variance (ANOVA) followed by post-hoc comparisons where appropriate using Tukey's Multiple Comparison Test. Data are represented as the mean and standard error of the mean (SEM).
1. […]

Fmr1 KO2 mice [2] = test: Tests of daily living (nesting), Fmr1 KO2 mice
Description: as §1, §2, §3, §4
3. Tests of daily living (nesting). Species-typical behaviors offer easy ways to test for hippocampal dysfunction. The hippocampus is vital for the performance of species-typical tasks, or “activities of daily living” of mice. […]

[3] = system: Fmr1 KO1 transgenic mice in an FVB background; test: Audiogenic seizures (AGS), Fmr1 KO1 mice in FVB background; settings: for Incidence / Respiratory arrest / Seizure / Wild running: audio stimulus 60 seconds at 124 db
Description: 4. Audiogenic Seizures (AGS) are reflex seizures generated by loud noises in genetically predisposed mice. The Fmr1 KO1 mice display audiogenic seizures depending on age and background strain, the Fmr1 KO1 mouse on the FVB background is characterized by an increased AGS susceptibility at all ages and is considered a good animal model for epilepsy. The effect of (S)-3-amino-4-(difluoromethylenyl) cyclopent-1-ene-1-carboxylic acid was tested on AGS Fmr1 KO1 transgenic mice in an FVB background. Observable criteria are: 1. normal behavior, 2. wild running, 3. seizure, and 4. respiratory arrest.
(S)-3-amino-4-(difluoromethylenyl) cyclopent-1-ene-1-carboxylic acid was administered to Fmr1 KO1 mice, males, age 2 months in the following amounts: 0.01 mg/kg, 0.05 mg/kg, and 0.1 mg/kg. Positive controls were administered 2-Methyl-6-(phenylethynyl)pyridine (MPEP), a mGluR5 antagonist, 30 mg/kg by i.p. and tested 20 minutes after injection. Audio stimulus was administered continuously for 60 seconds at 124 db.

Fmr1 KO2 mice [4] = test: Open field repetitive behavior: stereotypy count, Fmr1 KO2 mice
Description: as §1, §2, §3, §4
2. Open Field Repetitive Behaviors (stereotypies: anticlockwise circling (aka counter revolutions) (CCW) and self grooming). Fmr1 KO2 mice display the autism-like phenotypes of repetitive behaviors like CCW, self grooming and stereotypy that typically involves behaviors such as head bobbing.
C. […]

Fmr1 KO1 mice = test: Open field repetitive behavior: self grooming, Fmr1 KO1 mice
Description: as §1, §2, §3, §4
2. Open Field Repetitive Behaviors (RB) (stereotypies: anticlockwise circling and self grooming). Fmr1 KO1 mice display the autism-like phenotypes of repetitive behaviors like counter revolutions (CCW), self grooming and stereotypy that typically involves behaviors such as head bobbing. […]

N[C@H]1C=C(C(=O)O)CC1=C(F)F [Compound, (S)-3-Amino-4-(difluoromethylenyl)cyclopent-1-ene-1-carboxylic acid]
Open field locomotor activity (total distance traveled), WT-Veh vs. KO2-Compound: Significant? (Fmr1 KO2 mice [1]; 0.01 mg/Kg PO QD seven days): Yes | Open field locomotor activity (total distance traveled), WT-Veh vs. KO2-Compound: Significant? (Fmr1 KO2 mice [1]; 0.05 mg/Kg PO QD seven days): Yes | Open field locomotor activity (total distance traveled), WT-Veh vs. KO2-Compound: Significant? (Fmr1 KO2 mice [1]; 0.1 mg/Kg PO QD seven days): No | Open field locomotor activity (total distance traveled), WT-Veh vs. KO2-Compound: Summary (Fmr1 KO2 mice [1]; 0.1 mg/Kg PO QD seven days): ns | Nesting, WT-Veh vs. KO2-Compound: Significant? (Fmr1 KO2 mice [2]; 0.01 mg/Kg PO QD seven days): Yes | Nesting, WT-Veh vs. KO2-Compound: Significant? (Fmr1 KO2 mice [2]; 0.05 mg/Kg PO QD seven days): No | Nesting, WT-Veh vs. KO2-Compound: Summary (Fmr1 KO2 mice [2]; 0.05 mg/Kg PO QD seven days): ns | Nesting, WT-Veh vs. KO2-Compound: Significant? (Fmr1 KO2 mice [2]; 0.1 mg/Kg PO QD seven days): No | Nesting, WT-Veh vs. KO2-Compound: Summary (Fmr1 KO2 mice [2]; 0.1 mg/Kg PO QD seven days): ns | Effect on poorer nest building phenotype (FIG. 5) (Fmr1 KO2 mice [2]; 0.05 and 0.1 mg/Kg): rescued | Incidence ([3]; 0.01 mg/kg): 100% | Respiratory arrest ([3]; 0.01 mg/kg): 7/10 | Seizure ([3]; 0.01 mg/kg): 10/10 | Wild running ([3]; 0.01 mg/kg): 10/10 | Incidence ([3]; 0.05 mg/kg): 100% | Respiratory arrest ([3]; 0.05 mg/kg): 5/10 | Seizure ([3]; 0.05 mg/kg): 8/10 | Wild running ([3]; 0.05 mg/kg): 10/10 | Audiogenic seizure susceptibility reduced to ([3]; 0.1 mg/Kg, Fmr1 KO1 mice (FVB background)): 40% | Incidence ([3]; 0.1 mg/kg): 40% | Respiratory arrest ([3]; 0.1 mg/kg): 4/10 | Seizure ([3]; 0.1 mg/kg): 5/10 | Wild running ([3]; 0.1 mg/kg): 4/10 | Stereotypy count, WT-Veh vs. KO2-Compound: Significant? (Fmr1 KO2 mice [4]; 0.01 mg/Kg PO QD seven days): Yes | Stereotypy count, WT-Veh vs. KO2-Compound: Significant? (Fmr1 KO2 mice [4]; 0.05 mg/Kg PO QD seven days): No | Stereotypy count, WT-Veh vs. KO2-Compound: Summary (Fmr1 KO2 mice [4]; 0.05 mg/Kg PO QD seven days): ns | Stereotypy count, WT-Veh vs. KO2-Compound: Significant? (Fmr1 KO2 mice [4]; 0.1 mg/Kg PO QD seven days): No | Stereotypy count, WT-Veh vs. KO2-Compound: Summary (Fmr1 KO2 mice [4]; 0.1 mg/Kg PO QD seven days): ns | Effect on stereotypy counts phenotype (FIG. 4) (Fmr1 KO2 mice [4]; 0.05 and 0.1 mg/Kg): reversed | Self grooming (time spent grooming), WT-Veh vs. KO1-Compound: Significant? (Fmr1 KO1 mice; 0.01 mg/Kg PO QD seven days): Yes | Self grooming (time spent grooming), WT-Veh vs. KO1-Compound: Significant? (Fmr1 KO1 mice; 0.05 mg/Kg PO QD seven days): No | Self grooming (time spent grooming), WT-Veh vs. KO1-Compound: Summary (Fmr1 KO1 mice; 0.05 mg/Kg PO QD seven days): ns | Self grooming (time spent grooming), WT-Veh vs. KO1-Compound: Significant? (Fmr1 KO1 mice; 0.1 mg/Kg PO QD seven days): No | Self grooming (time spent grooming), WT-Veh vs. KO1-Compound: Summary (Fmr1 KO1 mice; 0.1 mg/Kg PO QD seven days): ns | Time self-grooming compared with WT+veh (FIG. 9) (Fmr1 KO1 mice; 0.05 and 0.1 mg/Kg): did not differ from WT+veh
